Experimental data taken from paper PMC9848300, “Discovery of novel enasidenib analogues targeting inhibition of mutant isocitrate dehydrogenase 2 as antileukaemic agents” (Journal of Enzyme Inhibition and Medicinal Chemistry, 2023).

How the values were obtained:
[1] = tested on: A549/ATCC; assay: NCI 60 antitumor screening (single dose); format: cell-based; conditions: Homo sapiens; A549/ATCC (non-small cell lung cancer), single dose 10 μM; read-out: Growth inhibition percentage (GI %)
Summary of the method: (§1)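 Test compound added at 10 μM to each of 60 human cancer lines from nine tumour types; growth measured per NCI protocol in triplicate; percent growth converted to inhibition (100 − G%).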

[2] = tested on: CAKI-1; assay: NCI 60 antitumor screening (single dose); format: cell-based; conditions: Homo sapiens; CAKI-1 (renal cancer), single dose 10 μM; read-out: Growth inhibition percentage (GI %)
Summary of the method: as §1

[3] = tested on: HCC-2998; assay: NCI 60 antitumor screening (single dose); format: cell-based; conditions: Homo sapiens; HCC-2998 (colon cancer), single dose 10 μM; read-out: Growth inhibition percentage (GI %)
Summary of the method: (§2)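 Values are GI% (100 − G%) from the NCI 60-line single-dose screen, compound at 10 μM.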

[4] = tested on: HOP-62; assay: NCI 60 antitumor screening (single dose); format: cell-based; conditions: Homo sapiens; HOP-62 (non-small cell lung cancer), single dose 10 μM; read-out: Growth inhibition percentage (GI %)
Summary of the method: as §2

[5] = tested on: KM 12; assay: NCI 60 antitumor screening (single dose); format: cell-based; conditions: Homo sapiens, KM12; KM 12 (colon cancer), single dose 10 μM; read-out: Growth inhibition percentage (GI %)
Summary of the method: as §1

[6] = tested on: MCF7; assay: NCI 60 antitumor screening (single dose); format: cell-based; conditions: Homo sapiens; MCF7 (breast cancer), single dose 10 μM; read-out: Growth inhibition percentage (GI %)
Summary of the method: as §1

[7] = tested on: NCI-H226; assay: NCI 60 antitumor screening (single dose); format: cell-based; conditions: Homo sapiens; NCI-H226 (non-small cell lung cancer), single dose 10 μM; read-out: Growth inhibition percentage (GI %)
Summary of the method: as §1

[8] = tested on: NCI-H23; assay: NCI 60 antitumor screening (single dose); format: cell-based; conditions: Homo sapiens; NCI-H23 (non-small cell lung cancer), single dose 10 μM; read-out: Growth inhibition percentage (GI %)
Summary of the method: as §2

[9] = tested on: NCI-H322M; assay: NCI 60 antitumor screening (single dose); format: cell-based; conditions: Homo sapiens; NCI-H322M (non-small cell lung cancer), single dose 10 μM; read-out: Growth inhibition percentage (GI %)
Summary of the method: as §1

[10] = tested on: NCI-H460; assay: NCI 60 antitumor screening (single dose); format: cell-based; conditions: Homo sapiens; NCI-H460 (non-small cell lung cancer), single dose 10 μM; read-out: Growth inhibition percentage (GI %)
Summary of the method: as §2

[11] = tested on: NCI-H522; assay: NCI 60 antitumor screening (single dose); format: cell-based; conditions: Homo sapiens; NCI-H522 (non-small cell lung cancer), single dose 10 μM; read-out: Growth inhibition percentage (GI %)
Summary of the method: as §2

[12] = tested on: OVCAR-3; assay: NCI 60 antitumor screening (single dose); format: cell-based; conditions: Homo sapiens; OVCAR-3 (ovarian cancer), single dose 10 μM; read-out: Growth inhibition percentage (GI %)
Summary of the method: as §1

[13] = tested on: OVCAR-4; assay: NCI 60 antitumor screening (single dose); format: cell-based; conditions: Homo sapiens; OVCAR-4 (ovarian cancer), single dose 10 μM; read-out: Growth inhibition percentage (GI %)
Summary of the method: as §1

[14] = tested on: OVCAR-5; assay: NCI 60 antitumor screening (single dose); format: cell-based; conditions: Homo sapiens; OVCAR-5 (ovarian cancer), single dose 10 μM; read-out: Growth inhibition percentage (GI %)
Summary of the method: as §2

[15] = tested on: OVCAR-8; assay: NCI 60 antitumor screening (single dose); format: cell-based; conditions: Homo sapiens; OVCAR-8 (ovarian cancer), single dose 10 μM; read-out: Growth inhibition percentage (GI %)
Summary of the method: as §1

[16] = tested on: PC-3; assay: NCI 60 antitumor screening (single dose); format: cell-based; conditions: Homo sapiens; PC-3 (prostate cancer), single dose 10 μM; read-out: Growth inhibition percentage (GI %)
Summary of the method: as §1

[17] = tested on: SF-268; assay: NCI 60 antitumor screening (single dose); format: cell-based; conditions: Homo sapiens; SF-268 (CNS cancer), single dose 10 μM; read-out: Growth inhibition percentage (GI %)
Summary of the method: as §2

[18] = tested on: SK-OV-3; assay: NCI 60 antitumor screening (single dose); format: cell-based; conditions: Homo sapiens; SK-OV-3 (ovarian cancer), single dose 10 μM; read-out: Growth inhibition percentage (GI %)
Summary of the method: as §2

[19] = tested on: SNB-19; assay: NCI 60 antitumor screening (single dose); format: cell-based; conditions: Homo sapiens; SNB-19 (CNS cancer), single dose 10 μM; read-out: Growth inhibition percentage (GI %)
Summary of the method: as §1

[20] = tested on: U251; assay: NCI 60 antitumor screening (single dose); format: cell-based; conditions: Homo sapiens, U-251; U251 (CNS cancer), single dose 10 μM; read-out: Growth inhibition percentage (GI %)
Summary of the method: as §2

[21] = tested on: SW-620; assay: NCI 60 antitumor screening (single dose / five doses); format: cell-based, human; conditions: Homo sapiens; SW-620 (colon cancer), single dose 10 μM; read-out: Growth inhibition percentage (GI %)
[22] = tested on: SF-295; assay: as above; format: cell-based; conditions: Homo sapiens; SF-295 (CNS cancer), single dose 10 μM; read-out: Growth inhibition percentage (GI %)
[23] = tested on: SK-MEL-28; assay: as above; format: cell-based; conditions: Homo sapiens; SK-MEL-28 (melanoma), single dose 10 μM; read-out: Growth inhibition percentage (GI %)
[24] = tested on: IGROV1; assay: as above; format: cell-based; conditions: Homo sapiens, IGROV-1; IGROV1 (ovarian cancer), single dose 10 μM; read-out: Growth inhibition percentage (GI %)
[25] = tested on: RXF 393; assay: as above; format: cell-based; conditions: Homo sapiens; RXF 393 (renal cancer), single dose 10 μM; read-out: Growth inhibition percentage (GI %)
[26] = tested on: DU-145; assay: as above; format: cell-based; conditions: Homo sapiens; DU-145 (prostate cancer), single dose 10 μM; read-out: Growth inhibition percentage (GI %)

| Compound | inhibition at 10 µM [1] [%] | inhibition at 10 µM [2] [%] | inhibition at 10 µM [3] [%] | inhibition at 10 µM [4] [%] | inhibition at 10 µM [5] [%] | inhibition at 10 µM [6] [%] | inhibition at 10 µM [7] [%] | inhibition at 10 µM [8] [%] | inhibition at 10 µM [9] [%] | inhibition at 10 µM [10] [%] | inhibition at 10 µM [11] [%] | inhibition at 10 µM [12] [%] | inhibition at 10 µM [13] [%] | inhibition at 10 µM [14] [%] | inhibition at 10 µM [15] [%] | inhibition at 10 µM [16] [%] | inhibition at 10 µM [17] [%] | inhibition at 10 µM [18] [%] | inhibition at 10 µM [19] [%] | inhibition at 10 µM [20] [%] | also measured |
| --- | --- | --- | --- | --- | --- | --- | --- | --- | --- | --- | --- | --- | --- | --- | --- | --- | --- | --- | --- | --- | --- |
| COC(=O)C(Cc1ccccc1)Nc1nc(NC(Cc2ccccc2)C(=O)OC)nc(N2CCOCC2)n1 (stereo not shown) [compound 8c, Methyl 2-({4-[(1-methoxy-1-oxo-3-phenylpropan-2-yl)amino]-6-(morpholin-4-yl)-1,3,5-triazin-2-yl}amino)-3-phenylpropanoate] | -8.33 | 13.2 | -9.86 | 2.66 | 0.3 | 2.21 | -1.61 | -6.51 | 2.57 | -6.88 | 9.02 | -11.1 | -6.53 | -6.25 | 0.4 | -2.72 | -2.56 | -2.71 | -3.58 | -5.23 | inhibition at 10 µM [21]: -11.7%; inhibition at 10 µM [22]: -7.74%; inhibition at 10 µM [23]: -8.72%; inhibition at 10 µM [24]: 1.38%; inhibition at 10 µM [25]: -12.7%; inhibition at 10 µM [26]: -11.6% |
| O=C(NNc1nc(NNC(=O)c2ccccc2)nc(N2CCOCC2)n1)c1ccccc1 [compound 8d, N'-[4-(morpholin-4-yl)-6-(phenylhydrazido)-1,3,5-triazin-2-yl]benzohydrazide] | 1.66 | 3.15 | -5.88 | -11.8 | -5.4 | 0.71 | 4.42 | 5.69 | 4.42 | -1.86 | -2.83 | -5.45 | -10.6 | -4.08 | 3.15 | -7.68 | -1.5 | -18.5 | 3.32 | -0.3 | inhibition at 10 µM [21]: -4.44%; inhibition at 10 µM [22]: -0.06%; inhibition at 10 µM [23]: -19.5%; inhibition at 10 µM [24]: -2.38%; inhibition at 10 µM [25]: 0.99%; inhibition at 10 µM [26]: -7.98% |
